Strand notation (5' to 3'): a small letter for the sugar, then the base; units joined by * are phosphorothioate-linked, units joined directly phosphodiester-linked; [ ] holds rarer units or linkages, { } end groups; capitals alone tell only the bases. l = locked nucleic acid (LNA); [5mC] = 5-methylcytosine; d = 2'-deoxy (DNA)
Tested on: ApoB mRNA
Experiment: Knock down of ApoB mRNA in vivo (qPCR on liver and kidney RNA)
Details: C57BL6/J mice, single sc dose 0.25 mg/kg GalNAc2 or equimolar amounts; for down regulation of ApoB mRNA in kidney: sacrificed at day 10, kidney, qPCR (FIG. 7B); for ApoB mRNA knock down in the liver: sacrificed at day 10, liver, qPCR (FIG. 7A)
Procedure: To compare the effect of different GalNAc constructs C57BL6/J mice were injected sc with a single dose saline or 0.25 mg/kg GalNAc2 cluster conjugated LNA-antisense oligonucleotide (GalNAc2) or equimolar amounts of LNA antisense oligonucleotides conjugated to the GalNAc constructs of the invention (FIGS. 6 E, I, M and N) or unconjugated LNA antisense oligonucleotide (see Example 2, table 1 for details) and sacrificed at days 10 where liver and kidney were isolated.
At sacrifice RNA was isolated from liver and kidney and subjected to qPCR with ApoB specific primers and probe to analyze for ApoB mRNA knockdown as described in the protocol below.
The animals were anaesthetised with 70% CO2-30% O2 and sacrificed by cervical dislocation. One half of the large liver lobe and one kidney were minced and submerged in RNAlater.
Total RNA was extracted from a maximum of 30 mg of tissue/sample, homogenized by bead-milling in the presence of lysis buffer (MagnaPure LC RNA Isolation Tissue buffer (#03604721001; Roche)) according to the manufacturer's instructions. The RNA was purified on a MagnaPure 96 System; Roche using Cellular RNA Large Volume Kit (#05467535001; Roche) using the manufacturer's standard protocol. First strand synthesis was performed using Reverse Transcriptase reagents from Ambion according to the manufacturer's instructions.
For each sample 0.5 μg total RNA was adjusted to (10.8 μl) with RNase free H2O and mixed with 2 μl random decamers (50 μM) and 4 μl dNTP mix (2.5 mM each dNTP) and heated to 70° C. for 3 min after which the samples were rapidly cooled on ice. 2 μl 10× Buffer RT, 1 μl MMLV Reverse Transcriptase (100 U/μl) and 0.25 μl RNase inhibitor (10 U/μl) were added to each sample, followed by incubation at 42° C. for 60 min, heat inactivation of the enzyme at 95° C. for 10 min and then the sample was cooled to 4° C. cDNA samples were diluted 1:5 and subjected to RT-QPCR using Taqman Fast Universal PCR Master Mix 2× (Applied Biosystems Cat #4364103) and Taqman gene expression assay (mApoB, Mn01545150_ml and mGAPDH #4352339E) following the manufacturers protocol and processed in an Applied Biosystems RT-qPCR instrument (7500/7900 or ViiA7) in fast mode.

Control: unconjugated oligonucleotide of SEQ ID NO: 1 (5′G^mCattggtatT^mCA-3′), without any GalNAc moieties attached (DNA GCATTGGTATTCA; LNA modifications, chemistry not fully specified) [reference compound]
down regulation of ApoB mRNA in kidney: higher

E: trivalent GalNAc construct, chain length 10, conjugated to oligonucleotide SEQ ID NO: 2 (5′ caG^mCattggtatT^mCA-3′) (antisense CAGCATTGGTATTCA; sugars from the 5' end d2 l2 d8 l3, [5mC] at 4, 14, backbone not given here; trivalent GalNAc conjugate, first linkages phosphodiester)
down regulation of ApoB mRNA in kidney: higher for the unconjugated LNA oligonucleotide (control) than for the GalNAc conjugated compounds | ApoB mRNA knock down in the liver: comparable effect on the target mRNA (ApoB mRNA) to the GalNAc2 cluster

GalNAc2: SEQ ID NO: 1 attached to the GalNAc2 cluster by a phospothioate group; SEQ ID NO: 20 in WO 2014/076196 (antisense lG*l[5mC]*dA*dT*dT*dG*dG*dT*dA*dT*lT*l[5mC]*lA; GalNAc2 cluster attached via phosphorothioate, end not given here) [reference compound]
down regulation of ApoB mRNA in kidney: higher for the unconjugated LNA oligonucleotide (control) than for the GalNAc conjugated compounds

I: trivalent GalNAc construct, chain length 16, conjugated to oligonucleotide SEQ ID NO: 2 (antisense CAGCATTGGTATTCA; sugars from the 5' end d2 l2 d8 l3, [5mC] at 4, 14, backbone not given here; trivalent GalNAc conjugate, first linkages phosphodiester)
down regulation of ApoB mRNA in kidney: higher for the unconjugated LNA oligonucleotide (control) than for the GalNAc conjugated compounds | ApoB mRNA knock down in the liver: comparable effect on the target mRNA (ApoB mRNA) to the GalNAc2 cluster

M: trivalent GalNAc construct with spacer, chain length 16, conjugated to oligonucleotide SEQ ID NO: 2 (antisense CAGCATTGGTATTCA; sugars from the 5' end d2 l2 d8 l3, [5mC] at 4, 14, backbone not given here; further chemistry not fully specified)
down regulation of ApoB mRNA in kidney: higher for the unconjugated LNA oligonucleotide (control) than for the GalNAc conjugated compounds | ApoB mRNA knock down in the liver: comparable effect on the target mRNA (ApoB mRNA) to the GalNAc2 cluster

N: trivalent GalNAc construct with spacer, chain length 30, conjugated to oligonucleotide SEQ ID NO: 2 (antisense CAGCATTGGTATTCA; sugars from the 5' end d2 l2 d8 l3, [5mC] at 4, 14, backbone not given here; further chemistry not fully specified)
down regulation of ApoB mRNA in kidney: higher for the unconjugated LNA oligonucleotide (control) than for the GalNAc conjugated compounds | ApoB mRNA knock down in the liver: comparable effect on the target mRNA (ApoB mRNA) to the GalNAc2 cluster

From patent publication US11505569B2, “GalNAc phosphoramidites, nucleic acid conjugates thereof and their use” (Hoffmann-La Roche, Inc., priority 2014, dated 2022)
